Data reported in ChEMBL document CHEMBL5727547, “Sodium channel modulators” (2020).

Experiments:
[1] = (§1) Automated patch clamp (Inactivation State Block): Test Protocol for Determining the Potency of Compounds on Nav1.2 and Nav1.6 Subtypes of Voltage-Gated Sodium Ion Channels Expressed in Mammalian CellsCell culture procedures: Chinese hamster ovary (CHO) cells were stably transfected with the cDNA sequence of either the human SCN2A or SCN8A genes to create hNav1.2 or hNav1.6 cells respectively. The cell lines were cultured in Ham's F-12 medium supplemented with 10% fetal bovine serum and antibiotics in a tissue incubator at 37° C. under a humidified air/CO2 mixture (95/5 v/v). On the day of the experiment, cells were washed twice with Hank's balanced salt solution, treated with trypsin, and resuspended in fresh culture media at a density of 4−6×10^6 cells in 20 ml. Immediately before placing in the IonWorks Quattro instrument, cells were washed in Hank's balanced salt solution to remove culture medium and re-suspended in 3 ml of Hank's balanced salt solution. Automated patch clamp recordings of cells using the IonWorks Quattro Instrument: The assay used a 384 microwell plate, which enabled 20 compounds to be studied at four different concentrations in quadruplicate as well as allowing a vehicle control group and a positive control group using mexiletine at 8 different concentrations. Cells were added to the wells of the Population Patch Clamp planar electrode using a 48-channel pipettor in a volume of 6 μL, per well. After 5 minutes incubation at ambient temperature with compounds or vehicle, membrane currents were recorded using the patch clamp amplifier. The pulse pattern was repeated twice, before and after compound addition and peak current amplitudes were measured at TP12 to measure Inactivation State Block. Data analysis: Data acquisition and analyses were carried out using the IonWorks Quattro system operation software which uses an algorithm to correct data for leak currents. Concentration-response curves were fitted by non-linear least squares regression allowing calculation of an IC50 value (μM), being the concentration of the compound producing half-maximal inhibition.
[2] = as §1, with “(Tonic” for “(Inactivation State”, “TP11” for “TP12”, “10 Hz Frequency-dependent” for “Inactivation State”
[3] = Automated patch clamp (Tonic Block): Test Protocol for Determining the Potency of Compounds on Nav1.2 and Nav1.6 Subtypes of Voltage-Gated Sodium Ion Channels Expressed in Mammalian CellsCell culture procedures: Chinese hamster ovary (CHO) cells were stably transfected with the cDNA sequence of either the human SCN2A or SCN8A genes to create hNav1.2 or hNav1.6 cells respectively. The cell lines were cultured in Ham's F-12 medium supplemented with 10% fetal bovine serum and antibiotics in a tissue incubator at 37° C. under a humidified air/CO2 mixture (95/5 v/v). On the day of the experiment, cells were washed twice with Hank's balanced salt solution, treated with trypsin, and resuspended in fresh culture media at a density of 4−6×10^6 cells in 20 ml. Immediately before placing in the IonWorks Quattro instrument, cells were washed in Hank's balanced salt solution to remove culture medium and re-suspended in 3 ml of Hank's balanced salt solution. Automated patch clamp recordings of cells using the IonWorks Quattro Instrument: The assay used a 384 microwell plate, which enabled 20 compounds to be studied at four different concentrations in quadruplicate as well as allowing a vehicle control group and a positive control group using mexiletine at 8 different concentrations. […]

Structure (SMILES) | IC50 [1] [µM] | IC50 [2] [µM] | IC50 [3] [µM]
Cc1cccc(C)c1OCCCNCc1ccc(-c2ccccc2)cc1 | > 1000 | > 1000 | 
Cc1n[nH]c(C)c1OCCCNC(c1ccccn1)c1ccccn1 | > 10 | > 10 | 
Cc1nn(C)c(C)c1OCCCNC(c1ccccn1)c1ccccn1 | > 10 | > 10 | 
Cc1nn(C)c(C)c1OCCCNCc1cccc(-c2cncnc2)c1 | > 10 | > 10 | 
Cc1cccc(C)c1OCCCNCc1cccc(C(F)(F)F)c1 | > 10 | > 10 | > 10
Cc1cccc(C)c1OCCCNCc1cc(C(C)(C)C)cc(C(C)(C)C)c1 | > 10 | > 10 | 

Next, values leading:

IC50 [1] [µM] | IC50 [2] [µM] | IC50 [3] [µM] | Structure (SMILES)
0.1 |  |  | Cc1cccc(C)c1OCCCNC(c1ccccn1)c1ccccn1
> 10 | > 10 |  | Cc1n[nH]c(C)c1OCCCNCc1cccc(-c2cncnc2)c1
2 | 2 |  | Cc1cccc(C)c1OCCCNCc1cccc(C#N)c1
